Measurements from patent publication US12172995B2, “Substituted indole and indazole compounds” (BRISTOL-MYERS SQUIBB COMPANY, priority 2018, dated 2024).

Legend:
Type in all cases: cell-based
[1] = biological target: T1, human TLR8 (Homo sapiens, UniProt Q9NR97); assay: TLR8 inhibition reporter assay (HEK-Blue SEAP); conditions: HEK-Blue cells overexpressing human TLR8, stimulated with R848 15.9 μM, 22 hour incubation
T1 construct: host or cells: HEK-Blue cells
T1 sequence (Q9NR97 27-1041): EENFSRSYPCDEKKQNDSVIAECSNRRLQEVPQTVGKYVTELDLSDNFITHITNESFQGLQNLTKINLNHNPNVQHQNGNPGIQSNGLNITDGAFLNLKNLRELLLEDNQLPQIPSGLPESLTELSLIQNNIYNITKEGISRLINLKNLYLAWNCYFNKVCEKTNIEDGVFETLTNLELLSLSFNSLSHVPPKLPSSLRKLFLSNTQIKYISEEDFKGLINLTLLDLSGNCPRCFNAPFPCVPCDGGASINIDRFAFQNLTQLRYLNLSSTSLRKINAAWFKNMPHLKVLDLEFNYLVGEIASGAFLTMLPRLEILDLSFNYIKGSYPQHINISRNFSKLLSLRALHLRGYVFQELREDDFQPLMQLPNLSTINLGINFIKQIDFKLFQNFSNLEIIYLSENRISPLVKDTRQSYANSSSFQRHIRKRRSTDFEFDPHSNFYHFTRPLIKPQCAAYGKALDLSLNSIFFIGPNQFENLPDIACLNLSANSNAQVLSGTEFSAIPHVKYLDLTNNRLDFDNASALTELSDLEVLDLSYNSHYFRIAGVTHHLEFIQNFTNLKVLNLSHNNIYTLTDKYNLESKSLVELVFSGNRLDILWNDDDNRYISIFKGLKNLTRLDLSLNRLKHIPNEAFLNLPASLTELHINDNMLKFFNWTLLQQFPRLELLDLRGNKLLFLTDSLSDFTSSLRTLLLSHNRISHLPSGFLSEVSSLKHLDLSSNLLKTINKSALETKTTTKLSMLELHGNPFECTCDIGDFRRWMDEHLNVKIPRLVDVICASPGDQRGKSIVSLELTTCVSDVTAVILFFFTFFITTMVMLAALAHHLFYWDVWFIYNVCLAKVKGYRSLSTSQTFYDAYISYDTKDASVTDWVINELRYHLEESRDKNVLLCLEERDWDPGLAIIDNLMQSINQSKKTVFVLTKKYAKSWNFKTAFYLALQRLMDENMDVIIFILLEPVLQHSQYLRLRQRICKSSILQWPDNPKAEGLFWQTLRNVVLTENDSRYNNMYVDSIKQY
Outline: (§1)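 HEK-Blue cells overexpressing human TLR7, TLR8 or TLR9 with an NF-κB/AP-1-driven SEAP reporter were pre-treated 30 min at room temperature with compound (0.05 nM to 50 μM), then stimulated with gardiquimod 7.5 μM (TLR7), R848 15.9 μM (TLR8) or ODN2006 5 nM (TLR9). SEAP measured after 22 h at 37° C; inhibition normalized between agonist-plus-DMSO and reference-inhibitor wells.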

[2] = biological target: T2, human TLR7 (Homo sapiens, UniProt Q9NYK1); assay: TLR7 inhibition reporter assay (HEK-Blue SEAP); conditions: HEK-Blue cells overexpressing human TLR7, stimulated with gardiquimod 7.5 μM, 22 hour incubation
T2 construct: host or cells: HEK-Blue cells
T2 sequence (Q9NYK1 27-1049): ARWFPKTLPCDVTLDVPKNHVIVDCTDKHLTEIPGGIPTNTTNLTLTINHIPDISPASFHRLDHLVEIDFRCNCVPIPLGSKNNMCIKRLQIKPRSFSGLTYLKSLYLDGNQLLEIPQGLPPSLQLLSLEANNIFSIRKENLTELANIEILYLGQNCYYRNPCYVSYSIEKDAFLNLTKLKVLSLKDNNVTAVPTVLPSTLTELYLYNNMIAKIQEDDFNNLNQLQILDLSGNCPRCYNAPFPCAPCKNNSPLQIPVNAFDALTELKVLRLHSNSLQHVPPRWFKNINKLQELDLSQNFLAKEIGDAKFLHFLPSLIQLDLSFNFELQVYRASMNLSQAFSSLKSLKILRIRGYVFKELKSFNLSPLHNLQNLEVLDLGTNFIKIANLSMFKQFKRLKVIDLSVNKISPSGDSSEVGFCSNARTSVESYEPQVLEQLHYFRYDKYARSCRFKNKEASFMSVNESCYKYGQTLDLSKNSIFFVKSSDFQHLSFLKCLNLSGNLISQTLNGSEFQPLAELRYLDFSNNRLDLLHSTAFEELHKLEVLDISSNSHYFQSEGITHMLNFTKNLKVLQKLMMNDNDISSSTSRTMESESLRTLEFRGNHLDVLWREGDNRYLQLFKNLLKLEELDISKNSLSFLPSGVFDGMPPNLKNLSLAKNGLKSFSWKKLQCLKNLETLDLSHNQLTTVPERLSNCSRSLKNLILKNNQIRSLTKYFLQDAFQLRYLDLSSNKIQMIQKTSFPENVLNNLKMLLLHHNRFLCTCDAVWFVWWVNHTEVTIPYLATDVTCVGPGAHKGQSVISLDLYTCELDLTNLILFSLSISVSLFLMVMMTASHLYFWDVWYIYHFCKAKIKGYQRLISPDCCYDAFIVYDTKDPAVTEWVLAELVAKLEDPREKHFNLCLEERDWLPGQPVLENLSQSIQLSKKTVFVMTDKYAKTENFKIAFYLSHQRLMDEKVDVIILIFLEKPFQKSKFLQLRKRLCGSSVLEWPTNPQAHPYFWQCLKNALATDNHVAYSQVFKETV
Outline: as §1

[3] = biological target: T3, human TLR9 (Homo sapiens, UniProt Q9NR96); assay: TLR9 inhibition reporter assay (HEK-Blue SEAP); conditions: HEK-Blue cells overexpressing human TLR9, stimulated with ODN2006 5 nM, 22 hour incubation
T3 construct: host or cells: HEK-Blue cells
T3 sequence (Q9NR96 26-1032): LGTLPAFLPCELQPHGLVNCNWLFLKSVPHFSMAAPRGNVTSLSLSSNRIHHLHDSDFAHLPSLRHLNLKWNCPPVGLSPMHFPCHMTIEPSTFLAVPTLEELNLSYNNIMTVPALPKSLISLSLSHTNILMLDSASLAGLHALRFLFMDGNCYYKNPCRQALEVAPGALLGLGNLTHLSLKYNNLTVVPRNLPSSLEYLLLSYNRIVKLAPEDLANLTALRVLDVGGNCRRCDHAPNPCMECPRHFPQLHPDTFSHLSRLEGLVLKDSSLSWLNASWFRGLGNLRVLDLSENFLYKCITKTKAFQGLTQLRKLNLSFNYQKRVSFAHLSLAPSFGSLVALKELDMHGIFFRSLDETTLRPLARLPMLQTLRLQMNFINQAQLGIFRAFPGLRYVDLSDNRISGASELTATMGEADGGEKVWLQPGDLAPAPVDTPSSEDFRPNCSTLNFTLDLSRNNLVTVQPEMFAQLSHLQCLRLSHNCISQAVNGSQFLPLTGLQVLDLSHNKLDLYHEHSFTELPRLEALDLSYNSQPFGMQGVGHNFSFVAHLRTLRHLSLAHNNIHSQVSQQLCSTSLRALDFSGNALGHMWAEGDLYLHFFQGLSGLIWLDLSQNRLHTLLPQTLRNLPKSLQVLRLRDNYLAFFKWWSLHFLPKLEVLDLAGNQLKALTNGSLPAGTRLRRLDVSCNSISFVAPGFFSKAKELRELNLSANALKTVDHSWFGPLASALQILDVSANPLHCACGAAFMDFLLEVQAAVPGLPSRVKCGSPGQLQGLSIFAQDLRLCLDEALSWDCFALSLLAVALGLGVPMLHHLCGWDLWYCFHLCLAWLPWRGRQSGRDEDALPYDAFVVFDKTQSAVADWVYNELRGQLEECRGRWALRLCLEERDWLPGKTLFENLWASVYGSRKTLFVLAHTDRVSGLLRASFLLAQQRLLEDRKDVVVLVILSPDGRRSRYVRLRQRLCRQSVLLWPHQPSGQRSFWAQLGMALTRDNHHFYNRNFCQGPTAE
Outline: as §1

Row | SMILES | IC50 [1] | IC50 [2] | IC50 [3]
1 | Cc1cc2c(C3CCCN(C4COC4)C3)n[nH]c2cc1-c1cc(C)c2ncnn2c1 (stereo not drawn) [Example 42, 8-methyl-6-(5-methyl-3-(1-(oxetan-3-yl)piperidin-3-yl)-1H-indazol-6-yl)-[1,2,4]triazolo[1,5-a]pyridine] | 0.9 nM | 83.6 nM | 14500 nM
2 | CNC1CCC(c2n[nH]c3cc(-c4cc(C)c5ncnn5c4)c(C)cc23)CC1 (stereo not drawn) [Example 44, N-methyl-4-(5-methyl-6-(8-methyl-[1,2,4]triazolo[1,5-a]pyridin-6-yl)-1H-indazol-3-yl)cyclohexan-1-amine] | 1.9 nM | 46.3 nM | 5490 nM
3 | COc1cc(-c2cc3[nH]nc(C4CCCNC4)c3cc2C)cn2ncnc12 (stereo not drawn) [Example 45, 8-methoxy-6-(5-methyl-3-(piperidin-3-yl)-1H-indazol-6-yl)-[1,2,4]triazolo[1,5-a]pyridine] | 0.7 nM | 19.2 nM | ≥ 50000 nM
4 | Cc1cc2c(C3CCCNC3)n[nH]c2cc1-c1cc(C)c(=O)n(C)c1 (stereo not drawn) [Example 46, 1,3-dimethyl-5-(5-methyl-3-(piperidin-3-yl)-1H-indazol-6-yl)pyridin-2(1H)-one] | 2.1 nM | 124 nM | 1040 nM
5 | Cc1cc2c(C3CCCNC3)n[nH]c2cc1-c1cn(C)c2ncccc12 (stereo not drawn) [Example 47, 5-methyl-6-(1-methyl-1H-pyrrolo[2,3-b]pyridin-3-yl)-3-(piperidin-3-yl)-1H-indazole] | 0.2 nM | 22.9 nM | 2880 nM
6 | Cc1cc2c(C3CCCNC3)n[nH]c2cc1-c1cn2ncnc2c(C)c1C (stereo not drawn) [Example 48, 7,8-dimethyl-6-(5-methyl-3-(piperidin-3-yl)-1H-indazol-6-yl)-[1,2,4]triazolo[1,5-a]pyridine] | 2.5 nM | 47.6 nM | 2310 nM
7 | Cc1cc2c(C3CNC3)n[nH]c2cc1-c1cc(C)c2ncnn2c1 [Example 49, 6-(3-(azetidin-3-yl)-5-methyl-1H-indazol-6-yl)-8-methyl-[1,2,4]triazolo[1,5-a]pyridine] | 15.3 nM | 174 nM | 1890 nM
8 | Cc1cc(-c2cc3[nH]nc(C4CCCNC4)c3cc2C)cc(C)n1 (stereo not drawn) [Example 50, 6-(2,6-dimethylpyridin-4-yl)-5-methyl-3-(piperidin-3-yl)-1H-indazole] | 1.5 nM | 63.4 nM | 404 nM
9 | Cc1cc(-c2cc(C)c3ncnn3c2)cc2[nH]nc(C3CCCNC3)c12 (stereo not drawn) [Example 51, 8-methyl-6-(4-methyl-3-(piperidin-3-yl)-1H-indazol-6-yl)-[1,2,4]triazolo[1,5-a]pyridine] | 19.6 nM | 4.7 nM | 287 nM
10 | Cc1cc2c(C3CCCN(CC(=O)N(C)C)C3)n[nH]c2cc1-c1cc(C)c2ncnn2c1 (stereo not drawn) [Example 53, N,N-dimethyl-2-(3-(5-methyl-6-(8-methyl-[1,2,4]triazolo[1,5-a]pyridin-6-yl)-1H-indazol-3-yl)piperidin-1-yl)acetamide] | 1.2 nM | 44.2 nM | 5830 nM
11 | Cc1cc2c(C3CCCN(C(=O)CN(C)C)C3)n[nH]c2cc1-c1cc(C)c2ncnn2c1 (stereo not drawn) [Example 54, 2-(dimethylamino)-1-(3-(5-methyl-6-(8-methyl-[1,2,4]triazolo[1,5-a]pyridin-6-yl)-1H-indazol-3-yl)piperidin-1-yl)ethan-1-one] | 6.4 nM | 41 nM | 5270 nM
12 | Cc1cc2c(C3CCCN(C(=O)CN(C)C)C3)n[nH]c2cc1-c1cc(C)c2ncnn2c1 (stereo not drawn) [Example 56, 2-(dimethylamino)-1-(3-(5-methyl-6-(8-methyl-[1,2,4]triazolo[1,5-a]pyridin-6-yl)-1H-indazol-3-yl)piperidin-1-yl)ethan-1-one] | 1.7 nM | 12.2 nM | 4940 nM
13 | Cc1cc2c(C3CCCN(CC(=O)N(C)C)C3)n[nH]c2cc1-c1cc(C)c2ncnn2c1 (stereo not drawn) [Example 57, N,N-dimethyl-2-(3-(5-methyl-6-(8-methyl-[1,2,4]triazolo[1,5-a]pyridin-6-yl)-1H-indazol-3-yl)piperidin-1-yl)acetamide] | 4.5 nM | 19.9 nM | 6900 nM
14 | Cc1cc2c(C3CCCNC3)n[nH]c2cc1-c1ccc2ncnn2c1 (stereo not drawn) [Example 58, 6-(5-methyl-3-(piperidin-3-yl)-1H-indazol-6-yl)-[1,2,4]triazolo[1,5-a] pyridine] | 2.8 nM | 76.2 nM | 661 nM
15 | Cc1cc(-c2cc(C)c3ncnn3c2)cc2[nH]nc(C3CCCN(CC(=O)N(C)C)C3)c12 (stereo not drawn) [Example 59, N,N-dimethyl-2-(3-(4-methyl-6-(8-methyl-[1,2,4]triazolo[1,5-a]pyridin-6-yl)-1H-indazol-3-yl)piperidin-1-yl)acetamide] | 43.9 nM | 10.5 nM | 3210 nM
